In patent US8962608B2, “Cycloalkylnitrile pyrazole carboxamides as janus kinase inhibitors” (Merck Sharp & Dohme Corp., priority 2011, dated 2015):

Molecular target: JAK1 (recombinant purified GST-tagged catalytic domain) (Homo sapiens (Human), UniProt P23458)
Assay: biochemical
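Further: biochemical assay with HTRF read-out.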

Sequence of JAK1 (recombinant purified GST-tagged catalytic domain) (P23458 875-1153): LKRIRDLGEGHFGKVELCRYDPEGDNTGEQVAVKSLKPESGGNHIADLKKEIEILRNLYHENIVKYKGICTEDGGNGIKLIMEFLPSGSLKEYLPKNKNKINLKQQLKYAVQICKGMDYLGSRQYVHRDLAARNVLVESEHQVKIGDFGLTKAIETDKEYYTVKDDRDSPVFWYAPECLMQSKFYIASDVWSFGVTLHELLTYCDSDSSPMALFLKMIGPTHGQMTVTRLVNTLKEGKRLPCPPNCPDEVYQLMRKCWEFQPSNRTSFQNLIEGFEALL

| IC50 [nM] | Compound |
| --- | --- |
| 0.35 | N#C[C@H]1CC(NCCO)CCC1n1cc(C(N)=O)c(Nc2ccc(S(=O)(=O)C(F)(F)F)cc2)n1 (mixture of isomers) [Example 27-15, 1-{(1S,2S and 1R,2R)-2-cyano-4-[(2-hydroxyethyl)amino]cyclohexyl}-3-({4-[(trifluoromethyl)sulfonyl]phenyl)amino)-l/f-pyrazolc-4-carboxamide] |
| 2 | CC(C)NC(=O)O[C@@H]1CCC(n2cc(C(N)=O)c(Nc3ccc(F)cc3)n2)[C@@H](C#N)C1 (mixture of isomers) [Example 34-4, (1R,3S,4S and 1S,3R,4R)-4-{4-carbamoyl-3-[(4-fluorophenyl)amino]-1H-pyrazol-1-yl}-3-cyanocyclohexyl propan-2-ylcarbamate] |
| 6 | CC(C)NC(=O)O[C@H]1CCC(n2cc(C(N)=O)c(Nc3ccc(F)cc3)n2)[C@@H](C#N)C1 (mixture of isomers) [Example 34-8, (1S,3S,4S and 1R,3R,4R)-4-{4-carbamoyl-3-[(4-fluorophenyl)amino]-1H-pyrazol-1-yl}-3-cyanocyclohexyl propan-2-ylcarbamate] |
| 3 | N#C[C@H]1CCCC[C@@H]1n1cc(C(N)=O)c(Nc2ccc(F)nc2)n1 (single isomer, unassigned) [Example 17-19, 1-[(1S,2S or 1R,2R)-2-cyanocyclohexyl]-3-[(6-fluoropyridin-3-yl)amino]-1H-pyrazole-4-carboxamide] |
| 11 | N#C[C@@H]1CCCC[C@H]1n1cc(C(N)=O)c(Nc2ccc(F)nc2)n1 (single isomer, unassigned) [Example 17-23, 1-[(1R,2R or 1S,2S)-2-cyanocyclohexyl]-3-[(6-fluoropyridin-3-yl)amino]-1H-pyrazole-4-carboxamide] |
| 0.3 | CC(=O)c1ccc(Nc2nn([C@H]3CCCC[C@@H]3C#N)cc2C(N)=O)cc1 (single isomer, unassigned) [Example 17-27, 3-[(4-acetylphenyl)amino]-1-[(1S,2S or 1R,2R)-2-cyanocyclohexyl]-1H-pyrazole-4-carboxamide] |
| 2 | C[C@](O)(c1ccc(Nc2nn([C@H]3CCCC[C@@H]3C#N)cc2C(N)=O)cn1)C(F)(F)F (single isomer, unassigned) [Example 17-34, 1-[(1S,2S or 1R,2R)-2-cyanocyclohexyl]-3-({6-[(1S or 1R)-2,2,2-trifluoro-1-hydroxy-1-methylethyl]pyridin-3-yl}amino)-1H-pyrazole-4-carboxamide] |
| 3 | C[C@@](O)(c1ccc(Nc2nn([C@H]3CCCC[C@@H]3C#N)cc2C(N)=O)cn1)C(F)(F)F (single isomer, unassigned) [Example 17-35, 1-[(1S,2S or 1R,2R)-2-cyanocyclohexyl]-3-({6-[(1R or 1S)-2,2,2-trifluoro-1-hydroxy-1-methylethyl]pyridin-3-yl}amino)-1H)-pyrazole-4-carboxamide] |
| 1 | C[C@](O)(c1ccc(Nc2nn([C@H]3CCCC[C@@H]3C#N)cc2C(N)=O)cn1)C(F)F (single isomer, unassigned) [Example 17-39, 1-[(1S,2S or 1R,2R)-2-cyanocyclohexyl]-3-({6-[(1S or 1R)-2,2-difluoro-1-hydroxy-1-methylethyl]pyridin-3-yl}amino)-1H-pyrazole-4-carboxamide] |
| 0.35 | N#C[C@H]1CCCC[C@@H]1n1cc(C(N)=O)c(Nc2ccc([C@@H](O)C(F)(F)F)nc2)n1 (single isomer, unassigned) [Example 17-46, 1-[(1S,2S or 1R,2R)-2-cyanocyclohexyl]-3-({6-[(1R or 1S)-2,2,2-trifluoro-1-hydroxyethyl]pyridin-3-yl}amino)-1H-pyrazole-4-carboxamide] |
| 0.2 | N#C[C@H]1CCCC[C@@H]1n1cc(C(N)=O)c(Nc2ccc([C@H](O)C(F)(F)F)nc2)n1 (single isomer, unassigned) [Example 17-50, 1-[(1S,2S or 1R,2R)-2-cyanocyclohexyl]-3-({6-[(1S or 1R)-2,2,2-trifluoro-1-hydroxyethyl]pyridin-3-yl}amino)-1H-pyrazole-4-carboxamide] |
| 7 | N#C[C@H]1CCCC[C@@H]1n1cc(C(N)=O)c(Nc2cc(F)cc(Cl)c2)n1 (single isomer, unassigned) [Example 17-51, 3-[(3-chloro-5-fluorophenyl)amino]-1-[(1S,2S or 1R,2R)-2-cyanocyclohexyl]-1H-pyrazole-4-carboxamide] |
| 0.2 | CC(C)(C(=O)NCC(F)(F)F)c1ccc(Nc2nn([C@H]3CCCC[C@@H]3C#N)cc2C(N)=O)cc1 (single isomer, unassigned) [Example 17-57, 1-[(1S,2S or 1R,2R)-2-cyanocyclohexyl]-3-[(4-{1,1-dimethyl-2-oxo-2-[(2,2,2-trifluoroethyl)amino]ethyl}phenyl)amino]-1H-pyrazole-4-carboxamide] |
| 3 | COC(=O)c1ccc(Nc2nn([C@H]3CCCC[C@@H]3C#N)cc2C(N)=O)cn1 (single isomer, unassigned) [Example 17-70, methyl 5-({4-carbamoyl-1-[(1R,2R or 1S,2S)-2-cyanocyclohexyl]-1H-pyrazol-3-yl}amino)pyridine-2-carboxylate] |
| 60 | CC(C)(C)NC(=O)c1cncc(Nc2nn([C@H]3CCCC[C@@H]3C#N)cc2C(N)=O)c1 (single isomer, unassigned) [Example 17-71, N-tert-butyl-5-({4-carbamoyl-1-[(1R,2R or 1S,2S)-2-cyanocyclohexyl]-1H-pyrazol-3-yl}amino)pyridine-3-carboxamide] |
| 0.3 | CC(C)NS(=O)(=O)c1ccc(Nc2nn([C@H]3CCCC[C@@H]3C#N)cc2C(N)=O)cc1 (single isomer, unassigned) [Example 17-93, 1-[(1R,2R or 1S,2S)-2-cyanocyclohexyl]-3-({4-[(1-methylethyl)sulfamoyl]phenyl}amino)-1H-pyrazole-4-carboxamide] |
| 0.7 | N#C[C@H]1CCCC[C@@H]1n1cc(C(N)=O)c(Nc2ccc(OC(F)F)cc2)n1 (single isomer, unassigned) [Example 17-103, 1-[(1S,2S or 1R,2R)-2-cyanocyclohexyl]-3-{[4-(difluoromethoxy)phenyl]amino}-1H-pyrazole-4-carboxamide] |
| 2 | N#C[C@H]1CCCC[C@@H]1n1cc(C(N)=O)c(Nc2ccc(C(F)(F)F)cc2)n1 (single isomer, unassigned) [Example 17-105, 1-[(1S,2S or 1R,2R)-2-cyanocyclohexyl]-3-{[4-(trifluoromethyl)phenyl]amino}-1H-pyrazole-4-carboxamide] |
| 1 | N#C[C@H]1C[C@H](O)CC[C@@H]1n1cc(C(N)=O)c(Nc2ccc(Cl)c(F)c2)n1 (single isomer, unassigned) [Example 25-3, 3-[(4-chloro-3-fluorophenyl)amino]-1-[(1S,2S,4R or 1R,2R,4S)-2-cyano-4-hydroxycyclohexyl]-1H-pyrazole-4-carboxamide] |
| 1 | CC(C)(CF)c1ccc(Nc2nn([C@H]3CC[C@@H](O)C[C@@H]3C#N)cc2C(N)=O)cc1 (single isomer, unassigned) [Example 25-9, 1-[(1S,2S,4R or 1R,2R,4S)-2-cyano-4-hydroxycyclohexyl]-3-{[4-(2-fluoro-1,1-dimethylethyl)phenyl]amino}-1H-pyrazole-4-carboxamide] |
| 0.45 | COC(C)(C)c1ccc(Nc2nn([C@H]3CC[C@@H](O)C[C@@H]3C#N)cc2C(N)=O)cc1 (single isomer, unassigned) [Example 25-11, 1-[(1S,2S,4R or 1R,2R,4S)-2-cyano-4-hydroxycyclohexyl]-3-{[4-(1-methoxy-1-methylethyl)phenyl]amino}-1H-pyrazole-4-carboxamide] |
| 1 | N#C[C@H]1C[C@H](O)CCC1n1cc(C(N)=O)c(Nc2ccnc(F)c2)n1 (single isomer, unassigned) [Example 25-21, 1-[(1S,2S,4R or 1R,2R,4S)-2-cyano-4-hydroxycyclohexyl]-3-[(2-fluoropyridin-4-yl)amino]-1H-pyrazole-4-carboxamide] |
| 15 | N#C[C@H]1C[C@H](O)CCC1n1cc(C(N)=O)c(Nc2ccnc(F)c2)n1 (single isomer, unassigned) [Example 25-25, 1-[(1S,2S,4R or 1R,2R,4S)-2-cyano-4-hydroxycyclohexyl]-3-[2-fluoropyridin-4-yl)amino]-1H-pyrazole-4-carboxamide] |
| 0.55 | CN([C@H]1CC[C@H](n2cc(C(N)=O)c(Nc3ccc(Cl)cc3)n2)[C@@H](C#N)C1)C(C)(C)C (single isomer, unassigned) [Example 28-6, 1-((1S,2S,4S or 1R,2R,4R)-4-(tert-butyl(methyl)amino)-2-cyanocyclohexyl)-3-((4-chlorophenyl)amino)-1H-pyrazole-4-carboxamide] |
| 2 | C[C@@H]1C[C@@H](C)N1[C@H]1CC[C@H](n2cc(C(N)=O)c(Nc3ccc(C(F)(F)F)cc3)n2)[C@@H](C#N)C1 (single isomer, unassigned) [Example 28-9, 1-{(1S,2S,4S or 1R,2R,4R)-2-cyano-4-[(2R,4R or 2S,4S)-2,4-dimethylazetidin-1-yl]cyclohexyl}-3-{[4-(trifluoromethyl)phenyl]amino}-1H-pyrazole-4-carboxamide] |
| 11 | C[C@H](N[C@@H]1CC[C@H](n2cc(C(N)=O)c(Nc3ccc(OC(F)F)nc3)n2)[C@@H](C#N)C1)C1CC1 (single isomer, unassigned) [Example 28-13, 1-[(1S,2S,4R or 1R,2R,4S)-2-cyano-4-{[(1S)-1-cyclopropylethyl]amino}cyclo-hexyl]-3-{[6-(difluoromethoxy)pyridin-3-yl]amino}-1H-pyrazole-4-carboxamide] |
| 2 | N#C[C@H]1C[C@@H](N2CC3(CCC3)C2)CC[C@@H]1n1cc(C(N)=O)c(Nc2ccc(C(F)(F)F)cc2)n1 (single isomer, unassigned) [Example 28-17, 1-[(1S,2S,4S or 1R,2R,4R)-4-(2-azaspiro[3.3]hept-2-yl)-2-cyanocyclohexyl]-3-{[4-(trifluoromethyl)phenyl]amino}-1H-pyrazole-4-carboxamide] |
